Measurements published in ChEMBL document CHEMBL1201862, “PubChem BioAssay data set” (2004).
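In this assay, cells in 96-well plates receive the compound at five concentrations for 48 hours. Endpoints are linearly interpolated between the surrounding concentrations. Abbreviation: GI50, concentration required for 50% inhibition of growth.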 Activity calls are given as the source filed them. Cut-off read from the data, not from the text of the source: active = GI50 up to about 1.1 µM and inactive = higher.

What was measured:
Experiment in all cases: growth of human tumour cells (NCI), 48 h
SF-295 = tested on: SF-295
TK-10 = tested on: TK-10
SW-620 = tested on: SW-620
NCI/ADR-RES = tested on: NCI/ADR-RES
K562 = tested on: K562
RXF 393 = tested on: RXF 393
A498 = tested on: A498
M14 = tested on: M14
EKVX = tested on: EKVX
UO-31 = tested on: UO-31
SF-539 = tested on: SF-539
RPMI-8226 = tested on: RPMI-8226
KM12 = tested on: KM12
NCI-H460 = tested on: NCI-H460
DU-145 = tested on: DU-145
SR = tested on: SR
CAKI-1 = tested on: CAKI-1
786-0 = tested on: 786-0
MCF7 = tested on: MCF7
MDA-MB-435 = tested on: MDA-MB-435

Row | Structure (SMILES) | GI50 (SF-295) | GI50 (TK-10) | GI50 (SW-620) | GI50 (NCI/ADR-RES) | GI50 (K562) | GI50 (RXF 393) | GI50 (A498) | GI50 (M14) | GI50 (EKVX) | GI50 (UO-31) | GI50 (SF-539) | GI50 (RPMI-8226) | GI50 (KM12) | GI50 (NCI-H460) | GI50 (DU-145) | GI50 (SR) | GI50 (CAKI-1) | GI50 (786-0) | GI50 (MCF7) | GI50 (MDA-MB-435)
1 | CC1(c2cccc(C3CCC4(C=CC3=O)OCCO4)c2)OCCO1 (stereo not given) | 34.3 µM (inactive) | 8.2 µM (inactive) | 2.9 µM (inactive) | 14.5 µM (inactive) | 3.08 µM (inactive) | 5.9 µM (inactive) | 16.9 µM (inactive) | 6.97 µM (inactive) | 19.6 µM (inactive) | 6.64 µM (inactive) | 14.8 µM (inactive) | 4.76 µM (inactive) | 17.4 µM (inactive) | 16.4 µM (inactive) | 17.9 µM (inactive) | 3.12 µM (inactive) | 8.61 µM (inactive) | 4.62 µM (inactive) | 11 µM (inactive) | 13.4 µM (inactive)
2 | Cc1cc(/N=C2\C=C(Nc3cc(C)on3)C(=O)c3ccccc32)no1 | 46.5 µM (inactive) | 55 µM (inactive) | > 100 µM (inactive) | 69 µM (inactive) | > 100 µM (inactive) | 30.3 µM (inactive) | > 100 µM (inactive) | 34.7 µM (inactive) | > 66.2 µM (inactive) | 43.7 µM (inactive) | 31.6 µM (inactive) | > 100 µM (inactive) | > 71.8 µM (inactive) | > 67.8 µM (inactive) | 52.5 µM (inactive) | > 100 µM (inactive) | > 85.9 µM (inactive) | 38.1 µM (inactive) | 7.46 µM (inactive) | 7.24 µM (inactive)
3 | C[C@]12CC[C@H]3[C@@H](CCC4=CC(=O)CC[C@@H]43)[C@@H]1CC[C@@H]2OC1(O)C(=O)c2ccccc2C1=O | > 100 µM (inactive) | 32.5 µM (inactive) | 40.6 µM (inactive) | 63 µM (inactive) | 35.3 µM (inactive) | 33.3 µM (inactive) | 48.5 µM (inactive) | 44.6 µM (inactive) | 0.352 µM (active) | 26.2 µM (inactive) | 32.4 µM (inactive) | 26.2 µM (inactive) | > 100 µM (inactive) | 67 µM (inactive) | 16.5 µM (inactive) | 35.6 µM (inactive) | 80.2 µM (inactive) | 24.9 µM (inactive) | 30.8 µM (inactive) | 32.7 µM (inactive)
4 | Cc1n[nH]c(=O)c2cc(-c3ccccc3)[nH]c12 | 35.8 µM (inactive) | 59.3 µM (inactive) | > 100 µM (inactive) | 57.8 µM (inactive) | 38.6 µM (inactive) | > 100 µM (inactive) | 25.9 µM (inactive) | 53.3 µM (inactive) | 36.6 µM (inactive) | 49.3 µM (inactive) | > 100 µM (inactive) | 37.6 µM (inactive) | 88.5 µM (inactive) | 48 µM (inactive) | 94.8 µM (inactive) | 46.8 µM (inactive) | > 100 µM (inactive) | > 100 µM (inactive) | 30.8 µM (inactive) | 51.9 µM (inactive)
5 | OC1(c2ccc(Cl)cc2)c2ccc(CN3CCCC3)cc2C2=NCCN21 (stereo not given) | 14.6 µM (inactive) | 4.98 µM (inactive) | 13.3 µM (inactive) | > 100 µM (inactive) | 16.1 µM (inactive) | 8.26 µM (inactive) | 13.1 µM (inactive) | 3.66 µM (inactive) | 15.2 µM (inactive) | 14.1 µM (inactive) | 13.2 µM (inactive) | 10.2 µM (inactive) | 12.8 µM (inactive) | 14.6 µM (inactive) | 16 µM (inactive) | 10.4 µM (inactive) | 16.4 µM (inactive) | 15.2 µM (inactive) | 16.8 µM (inactive) | 10.5 µM (inactive)
6 | CN(C)CCNC(=O)c1cccc2c(NCCN(C)C)c3ccccc3nc12 | 4.93 µM (inactive) | 3.24 µM (inactive) | 2.33 µM (inactive) | 7.78 µM (inactive) | 1.73 µM (inactive) | 3.6 µM (inactive) | 1.94 µM (inactive) | 7.1 µM (inactive) | 2.99 µM (inactive) | 2.92 µM (inactive) | 3.05 µM (inactive) | 2.41 µM (inactive) | 2.79 µM (inactive) | 1.37 µM (inactive) | 3.82 µM (inactive) | 0.982 µM (active) | 2.69 µM (inactive) | 1.7 µM (inactive) | 2.36 µM (inactive) | 2.94 µM (inactive)
7 | C[C@H](CCC(=O)NN)[C@H]1CC[C@H]2[C@@H]3CC[C@@H]4C[C@H](O)CC[C@]4(C)[C@H]3CC[C@]12C | > 68.2 µM (inactive) | 38.3 µM (inactive) | 71.8 µM (inactive) | 64.1 µM (inactive) | 14.7 µM (inactive) | 21.4 µM (inactive) | 79.3 µM (inactive) | 25.4 µM (inactive) | 43 µM (inactive) | 51.9 µM (inactive) | 84.1 µM (inactive) | 20.7 µM (inactive) | 39.2 µM (inactive) | 52.1 µM (inactive) | > 50.8 µM (inactive) | 18.6 µM (inactive) | 46.3 µM (inactive) | 36.4 µM (inactive) | 31.7 µM (inactive) | 44.2 µM (inactive)
